# In patent US20050148495A1, “Methods and materials including for treating acne” (priority 2003, published 2005):
# Where two headings read alike, the source gives them in different places. Non-standard residues stand in square brackets, D forms with d. Residues, ends and D or L forms follow the SMILES beside them. d1Nal = N[C@H](Cc1cccc2ccccc12)C(=O)O
# Key:
# [1] = physchem
# Description: In additional studies, a variety of formulations of XMP.629 were tested for stability under various temperatures, such as 25° C., 40° C., and 50° C., and at various time points, such as 0.5, 1, and 2 months.
# The solubility of XMP.629 acetate in various solvents was also evaluated.
# Solubility studies were conducted using a variety of solvent systems and/or skin penetration enhancers.
# [2] = 10 mg/kg oral gavage
# [3] = in vivo; conditions: both, rat, plasma, po, 10 mg/kg, Bioavailability, 10 mg/kg oral gavage in distilled water
# [4] = system: Pseudomonas aeruginosa; test: microbe, parasite or virus in culture
# [5] = system: Proteus mirabilis; test: microbe, parasite or virus in culture; format: cell-based; conditions: Proteus mirabilis 29852; read-out: Minimum Inhibitory Concentrations
# Description: (§1) Acne vulgaris may involve a microbial consortium. Although P. acnes may be a prominent member of such a consortium, other uncharacterized bacteria may also participate. The microbial activity of XMP.629 as an acetate gel as described in Example 5 and other commonly used antibiotics was evaluated against a panel of human pathogens using standardized NCCLS protocols. […] Lesser potency was observed against the gram-negative organisms B. fragilis, B. cepacia, P. mirabilis and S. marcescens, which are often refractory to many antimicrobial compounds.
# [6] = system: Escherichia coli; test: microbe, parasite or virus in culture; format: cell-based; conditions: Escherichia coli, read-out: Minimum Inhibitory Concentrations
# Description: as §1
# [7] = system: Klebsiella pneumoniae; test: microbe, parasite or virus in culture; format: cell-based; conditions: Klebsiella pneumoniae, read-out: Minimum Inhibitory Concentrations
# Description: as §1
# [8] = system: Serratia marcescens; test: microbe, parasite or virus in culture; format: cell-based; conditions: Serratia marcescens 13880; read-out: Minimum Inhibitory Concentrations
# Description: as §1
# [9] = system: Enterococcus faccium (VRE); test: microbe, parasite or virus in culture; conditions: read-out: Minimum Inhibitory Concentrations
# [10] = system: Staphylococcus aureus; conditions: Staphylococcus aureus 342U-116
# [11] = system: Staphylococcus aureus; test: microbe, parasite or virus in culture
# [12] = system: patients; conditions: clinical trials; cited from earlier work
# [13] = system: P. acnes strain (ATCC 6919); conditions: P. acnes ATCC 6919 passaged in the drug, level of the resistant culture sought/obtained
# [14] = system: P. acnes; test: microbe, parasite or virus in culture; conditions: Cutibacterium acnes; for MIC90: read-out: MIC90 of Standard Topical Agents
# Description: An in vitro assessment of antibiotic activity in XMP.629 and various known antibiotics against a representative panel of bacterial strains associated with acne was conducted. A broth dilution methodology was employed using guidelines established by National Committee for Clinical Laboratory Standards (NCCLS) for anaerobic organisms to establish an antibacterial profile for XMP.629. Assays to determine the minimal bactericidal concentrations (MBC) and minimal inhibitory concentration (MIC) were conducted for XMP.629 and other known antibiotics.
# Inoculum from a representative panel of bacterial strains associated with acne, such as P. acnes, P. avidum, P. granulosum, and Staphylococcus epidermis was prepared by suspending approximately 5-10 isolated bacterial colonies in pre-reduced MicroScan® Inoculum Water (Dade Behring, Deerfield, Ill.), and growing the bacterial suspension to log phase (approximately 48 hrs). An inoculum of between 1-5×10^6/mL was achieved by adding 100 μL of the suspension to 25 mL Brain Heart Infusion Broth (BHI) (Anaerobe Systems, Morgan Hill, Calif.).
# A stock solution of XMP.629 dissolved in water at a concentration of 4.0 mg/mL was prepared. Dilute solutions of XMP.629 at concentrations ranging from about 1.25 to about 160 μg/mL were made in either water or formulation buffer (130 mM sodium chloride, 0.2% P103 (poloxamer 333), and 0.10% EDTA, pH 7.3).
# Control tubes containing only water or formulation buffer were prepared for each isolate. Initial growth controls were determined by removing 10 μL from the water control tube and diluting it by 100 fold. From this dilution, 10 μL was used for inoculation and for spreading over the surface onto Laked Blood Agar (LBA) (Anaerobe Systems, Morgan Hill, Calif.) plates. The tubes and plates were incubated in an anaerobic atmosphere at 37° C. for 48 h.
# [15] = system: Corynebacterium; test: microbe, parasite or virus in culture; format: cell-based; conditions: read-out: MIC90 of Standard Topical Agents
# Description: (§2) Control tubes containing only water or formulation buffer were prepared for each isolate. Initial growth controls were determined by removing 10 μL from the water control tube and diluting it by 100 fold. From this dilution, 10 μL was used for inoculation and for spreading over the surface onto Laked Blood Agar (LBA) (Anaerobe Systems, Morgan Hill, Calif.) plates. The tubes and plates were incubated in an anaerobic atmosphere at 37° C. for 48 h. […] MBC50 and 90 values represent where 50 and 90%, respectively, of the tested strain's MBC values are equal to or less than the indicated concentration.
# [16] = system: P. acnes; conditions: strains UPC686 and UP2022; with XMP.629
# [17] = system: P. acnes strain (ATCC 6919); test: microbe, parasite or virus in culture; conditions: Cutibacterium acnes, ATCC6919, read-out: MIC for matched, untreated, control organisms
# [18] = system: S. aureus; test: Comparison of XMP.629 with standard topical agents (MIC90/MBC); format: cell-based, Staphylococcus aureus; conditions: Staphylococcus aureus
# Description: as §2
# [19] = system: P. acnes; test: microbe, parasite or virus in culture; conditions: Cutibacterium acnes
# [20] = system: E. coli; conditions: E. coli 4104 LF
# [21] = system: Bacteroides fragilis; test: microbe, parasite or virus in culture; format: cell-based; conditions: Bacteroides fragilis 25285; read-out: Minimum Inhibitory Concentrations
# Description: as §1
# [22] = system: skin of healthy subjects; test: 21-day cumulative skin irritation study in healthy subjects; conditions: occlusive patches
# Description: Subjects include males and females, ranging in age from 18 to 70 years old. Subjects are of any skin and race type.
# Patches are prepared approximately 5-60 minutes before application to the subject and are applied on the backs of subjects at designated sites. Patches are held in place with appropriate adhesion tapes for 48 hours. Gels are applied to the same site on a given subject according to the randomization code three times per week. Subjects are instructed to keep the patches dry and are asked to avoid exercise that results in excessive sweating. Additionally, subjects are instructed to not expose the applied sites to sunlight for the duration of the study.
# Every application is observed 48 hours later for signs of irritation or inflammation by a clinician or investigator. The clinician or investigator evaluates sign of skin reaction on each site for approximately 5-15 minutes after the patch is removed. Skin irritancy is rated according to the following commonly used 6-point scale: • 0=No sign of irritation • 0.5=Barely perceptible erythema • 1=Slight erythema • 2=Noticeable erythema with slight infiltration • 3=Erythema with marked edema • 4=Erythema with edema and blistering
# Other signs of skin reaction to the tested gels are noted as adverse events and are recorded. A total of nine readings are performed during the study. […]
# [23] = system: hemizygous Tg.AC mice; test: Mouse dermal carcinogenicity study (TPA in XMP.629 acetate gel placebo); format: in vivo
# Description: XMP.629 was evaluated in a dermal carcinogenicity study to determine whether repeated dermal treatment with tetradeconyl phorbol acetate (TPA) in a XMP.629 acetate gel placebo formulation increased the incidence of skin tumors in hemizygous Tg.AC mice. […] Group 1 was treated with XMP.629 acetate gel placebo alone. A sixth group (Group 2) was treated with TPA dissolved in acetone at a dose level of 1.25 μg per 150 μL application and served as a reference standard. The animals were dosed via dermal application three times per week (e.g., Monday, Wednesday and Friday) for 12 consecutive weeks.
# All animals were observed twice daily for moribundity and mortality. A hands-on examination was performed weekly at the time the animals were weighed on Day 1 and weekly thereafter. At that time, the animals were examined for clinical evidence of toxicity, carcinogenicity, and/or irritation at the site of application. […] The number of tumors at the site of application (SOA) and non-site of application (non-SOA) was recorded for each animal each week. At the end of the study (Day 85), the surviving animals were euthanized with CO2 asphyxiation. A necropsy was not performed.
# [24] = system: albino hairless guinea pigs Crl:IAF(HA)-hrBR (Outbred); test: Photosafety study: primary irritancy, phototoxicity, contact hypersensitivity, photoallergy; format: in vivo, guinea pig; conditions: single topical administration and UVR; XMP.629 up to 10 mg/mL (1.0%)
# Description: XMP.629 was evaluated for photoallergic potential administered topically to hairless guinea pigs. Primary irritancy, phototoxicity (photoirritancy) and contact hypersensitivity were also evaluated in these studies.
# Male CrI:IaF(HA)-hrBR (Outbred) albino hairless guinea pigs were assigned to 7 groups, five guinea pigs per group as outlined below.
# XMP.629 was formulated as a gel. The phototoxicity comparator article was 8-methoxypsoralen (8-MOP) in methanol at concentrations of 0.1, 0.3 and 1.0 mg/mL. The contact hypersensitivity and photoallergy comparator article was 3,3′,4′,5′-tetrachlorosalicy/anilide (TCSA) in acetone:corn oil (4:1, v/v) at challenge concentrations of 0 (Vehicle), 10, and 30 mg/mL. The reagent and reagent vehicle were Freund's complete adjuvant (FCA) and sterile water for injection, USP, respectively.
# The formulation administration and ultraviolet radiation (UVR) exposure regimens for each group in the study were as follows.
# For all phases of the study, test articles, test article vehicles, comparator articles and comparator article vehicles were administered (0.3 ml) using a Hilltop chamber affixed to the guinea pig with dental dam overlaid with a Velcro® wrap for approximately 2.0 hours per administration.
# Primary irritancy potential of the test articles and test article vehicles was evaluated in Group 1 guinea pigs. Three chambers (one per formulation dosage) were attached to the dorsal skin along the midline. After the administration period the chamber patches were removed and the application sites were gently wiped.
# Cutaneous phototoxicity potential of the test articles and test article vehicles was evaluated in Group 2 guinea pigs. Group 3 guinea pigs were used as a comparator group with elicitation of phototoxicity with 8-MOP. Three chambers (one per formulation dosage) were attached to the dorsal skin along the midline and occluded. After the administration period the chamber patches were removed and the application sites were gently wiped. After wiping, Group 2 and 3 guinea pigs were exposed to solar-simulated UVR for approximately 2.25 hours.
# For induction of contact hypersensitivity and photoallergy, a nuchal area of skin approximately 2.5 cm^2 was defined by intradermal injections with a formulation of sterile water and FCA in guinea pigs in Groups 4 through 7 under isoflurane/oxygen anesthesia. This skin area was then tape stripped five times. Formulations were topically administered via chambers as described in the study design table using one chamber attached to the nuchal area. After removal of the chambers the application sites were gently wiped and the nuchal site of Group 6 and 7 guinea pigs was exposed to UVR as above. Appropriate procedures for guinea pigs (with the exception of injection with FCA) were repeated once daily on Days 3, 5, 8, 10 and 12 of the induction phase.
# On Day 22 (contact hypersensitivity and photoallergy challenge), formulations were topically applied to appropriate sites on guinea pigs in Groups 4 through 7 as described above. Three chambers (one per formulation dosage) were attached to the dorsal skin along the midline and occluded. The chambers were then removed and the application sites were gently wiped. Guinea pigs in Groups 6 and 7 were then exposed to UVR as above.
# Observations for general appearance and clinical signs were made weekly throughout the study. […] Body weights were recorded at initiation of dosing for each phase, weekly thereafter and at sacrifice. […]
# [25] = read-out: Minimum Inhibitory Concentrations, Pseudomonas aeruginosa 27853
# [26] = clindamycin/erythromycin sensitive strain UP2022
compound,measurement,setting,value
CC(C)C[C@@H](NC(=O)[C@H](N)CCCCN)C(=O)N[C@H](Cc1ccccc1)C(=O)N[C@H](CCCNC(=N)N)C(=O)N[C@H](Cc1cccc2ccccc12)C(=O)N[C@H](CCC(N)=O)C(=O)N[C@H](C)C(=O)N[C@H](CCCCN)C(=O)N[C@H](Cc1cccc2ccccc12)C(N)=O [XMP.629 acetate] (H-[dK][dL][dF][dR][d1Nal][dQ][dA][dK][d1Nal]-NH2),solubility,"[1]; ethanol, 200 proof",< 2200 µg/mL
same,solubility,[1]; propylene glycol,10600 to 12500 µg/mL
same,solubility,[1]; purified water,< 1660 µg/mL
same,solubility,"[1]; sodium acetate buffer, pH 6",> 1640 µg/mL
same,solubility,[1]; transcutol P,< 170 µg/mL
same,"Bioavailability, 5% glucose formulation versus distilled water",[2],~4 fold
same,"peak concentrations, 5% glucose formulation versus distilled water",[2],~4 fold
same,time of peak concentrations following dosing,[2],10 to 20 min
same,bioavailability,[3],~0.001%
C[C@H]1c2cccc(O)c2C(=O)C2=C(O)[C@]3(O)C(=O)C(C(N)=O)=C(O)[C@@H](N(C)C)[C@@H]3[C@@H](O)[C@@H]21 [Doxycycline],MIC,[4]; [25],32 µg/mL
same,MIC,[5],64 µg/mL
same,MIC,[6]; Escherichia coli 0111:B4,2 µg/mL
same,MIC,[7]; Klebsiella pneumoniae 19645,32 µg/mL
same,MIC,[7]; Klebsiella pneumoniae 29011,32 µg/mL
same,MIC,[8],8 µg/mL
Cc1onc(-c2ccccc2)c1C(=O)N[C@@H]1C(=O)N2[C@@H]1SC(C)(C)[C@@H]2C(=O)O [Oxacillin],MIC,[9],> 64 µg/mL
same,MBC (antibiotic alone),[10],1 µg/mL
same,MIC,"[11]; BAA38|MRSA, read-out: Minimum Inhibitory Concentrations, Staphylococcus aureus BAA-38 (MRSA)",8 µg/mL
same,MIC,"[11]; read-out: Minimum Inhibitory Concentrations, Staphylococcus aureus 19636",1 µg/mL
O=C(O)CCCCCCCC(=O)O [azelaic acid],"patients reporting pruritus (itching), burning, stinging, and tingling",[12],1-5%
CC[C@H]1OC(=O)[C@H](C)[C@@H](O[C@H]2C[C@@](C)(OC)[C@@H](O)[C@H](C)O2)[C@H](C)[C@@H](O[C@@H]2O[C@H](C)C[C@H](N(C)C)[C@H]2O)[C@](C)(O)C[C@@H](C)C(=O)[C@H](C)[C@@H](O)[C@]1(C)O [Erythromycin],MIC/MBC,[13]; listed as Erythromycin IR,64 µg/mL
same,MIC/MBC,[13]; listed as Erythromycin R,>64 µg/mL
same,MIC90,[14],> 256 µg/mL
same,MIC90,[15],0.5 µg/mL
same,FIC,[16],2
same,MIC,[17],4 µg/mL
same,MIC90,[18],> 4 µg/mL
same,MIC,"[19]; ATCC6919, ATCC 6919 converted to an intermediate-erythromycin strain",64 µg/mL
same,MIC,[19]; [26],< 1 µg/mL
C/C(=C\C(=O)OCCCCCCCCC(=O)O)C[C@@H]1OC[C@H](C[C@@H]2O[C@H]2[C@@H](C)[C@H](C)O)[C@@H](O)[C@H]1O [Mupirocin],MIC90,[18],4 µg/mL
CO/N=C(\C(=O)N[C@@H]1C(=O)N2C(C(=O)O)=C(CSc3nc(=O)c(=O)[nH]n3C)CS[C@H]12)c1csc(N)n1 [Ceftriaxone],MBC (antibiotic alone),[20],≦4 μg/mL
same,MBC (antibiotic alone),[10],>4 µg/mL
same,MIC,[4]; [25],8 µg/mL
same,MIC,"[4]; read-out: Minimum Inhibitory Concentrations, Pseudomonas aeruginosa XS-65 (MDR)",16 µg/mL
same,MIC,[5],≤ 0.063 µg/mL
same,MIC,[6]; Escherichia coli 07:K1,≤ 0.25 µg/mL
same,MIC,[6]; Escherichia coli 0111:B4,≤ 0.063 µg/mL
same,MIC,[7]; Klebsiella pneumoniae 19645,> 64 µg/mL
same,MIC,[7]; Klebsiella pneumoniae 29011,0.13 µg/mL
same,MIC,[8],0.25 µg/mL
same,MIC,[21],2.5 µg/mL
CCC[C@@H]1C[C@@H](C(=O)N[C@@H]([C@H]2O[C@H](SC)[C@H](O)[C@@H](O)[C@H]2O)[C@H](C)Cl)N(C)C1 [Clindamycin],MIC/MBC,[13],>64 µg/mL
same,MIC90,[14],16 µg/mL
same,MIC,[14]; read-out: MIC of clindamycin resistant strains,> 64 µg/mL
same,FIC,[16],2
same,MIC,[19]; [26],< 1 µg/mL
CCCCCCCCCCCCOS(=O)(=O)[O-].[Na+] [sodium lauryl sulfate],"cumulative irritation, conclusion",[22],mild cumulative irritation
same,mean cumulative irritation score,[22],0.25
"CCCCCCCCCCCCCC(=O)O[C@@H]1[C@@H](C)[C@@]2(O)[C@@H](C=C(CO)C[C@]3(O)C(=O)C(C)=C[C@@H]23)[C@@H]2C(C)(C)[C@]12OC(C)=O [TPA, tetradeconyl phorbol acetate]",tumor development,"[23]; 10 μg TPA per application, a single female",one latent and one actual papilloma
same,"tumor development, females",[23]; 20 μg TPA per application,4/4
same,"tumor development, males",[23]; 20 μg TPA per application,2/5
same,tumor development,[23]; 2.5 and 5.0 μg per application in XMP.629 acetate gel placebo,did not result in tumor development
"COc1c2occc2cc2ccc(=O)oc12 [8-MOP, 8-methoxypsoralen, reference compound]",phototoxicity,[24],produced skin reactions indicative of cutaneous phototoxicity
